Measured values published in US10300052B2, “Methods for increasing CFTR activity” (THE UAB RESEARCH FOUNDATION, priority 2012, dated 2019).

Legend:
[1] = tested on: porcine trachea CFTR−/−; assay: μOCT imaging of airway epithelial function in porcine trachea, CFTR-/- animals; conditions: sequential ivacaftor 10 μM, forskolin 100 nM, acetylcholine 100 μM in bath, 37° C. (FIG. 7G)
Text: (§1) FIGS. 7A-7H show the effects of CFTR activators on airway epithelial function in intact porcine trachea by μOCT. FIGS. 7A-7B show representative μOCT images for a CFTR−/− (FIG. 7A) and CFTR+/+ (FIG. 7B) animal. FIGS. 7C-7F, respectively, show ASL depth (FIG. 7C), PCL depth (FIG. 7D), CBF (FIG. 7E) and MCT (FIG. 7F) measurements derived from μOCT images from CFTR−/− and CFTR+/+ animals. FIGS. 7G and 7H show the response of epithelial functional parameters, namely ASL depth and MCT in CFTR−/− (FIG. 7G) and CFTR+/+(FIG. 7H) animals in response to sequential pharmacologic intervention by ivacaftor (10 μM), forskolin (100 nM) and acetylcholine (100 μM).
(§2) To further investigate the role of CFTR activators in modulating airway epithelial cell function, CFTR activators were studied in combination with porcine trachea. In this example, porcine trachea from animals having a mutated CFTR (CFTR (−/−) and from animals having a WT-CFTR (CFTR+/+) were evaluated for ASL depth, PCL depth, CBF and MCT. The results are shown in FIGS. 7A-7H.
(§3) FIGS. 7G and 7H show the response of epithelial functional parameters, namely ASL depth, CBF and MCT in CFTR−/− and CFTR+/+ animals in response to sequential pharmacologic intervention by ivacaftor (10 μM), forskolin (100 nM) and acetylcholine (100 μM); in this experiment, acetylcholine served as a positive control to induce glandular extrusion in CF tissue). In these experiments, agonists were added to the bath solution and all experiments were conducted under physiological conditions (37° C. and 100% humidity). […] In contrast to FIG. 7G, ASL depth, CBF and MCT were all increased in response to ivacaftor treatment in CFTR+/+ animals, consistent with the results described above for human tissue.
Normal piglet tracheas were obtained from Exemplar Genetics (Sioux Center, Iowa). Tissue were dissected from one-day-old piglets and shipped on wet ice in DMEM. A modified protocol based on airway tissue handling and preparation methods developed by Ballard et al. (Am J Physiol Lung Cell Mol Physiol 298: L270-276, 2010) was employed. Tracheas were immersed in 80 mL Ringer bicarbonate solution (KRB) baths at room temperature and slowly warmed to 37° C. After four hours of pretreatment, the tracheas were removed from the KRB. Accessible mucus and liquid were aspirated from the airway lumens and the tracheal ends were cannulated so that the serosal surface was bathed in KRB [29] without contacting the mucosal surface, as previously described (Ballard et al., Am J Physiol Lung Cell Mol Physiol 298: L270-276, 2010; Martens, et al., Am J Physiol Lung Cell Mol Physiol 301: L236-246, 2011). Tracheas were allowed to equilibrate in KRB bubbled with 95% 02 and 5% CO2 at 37° C. and the luminal side exposed to conditioned air at 100% humidity for 2 hours prior to mOCT imaging (Sleigh et al., Comp Biochem Physiol A Comp Physiol 94: 359-364, 1989).
The μOCT system is a spectral-domain OCT implementation with several improvements to standard OCT that yield high resolution in both lateral and axial directions. The general layout and axial resolution characterization have been described (Liu et al., PLOSOne, 8(1), E54473-2013). A super-continuum source (Fianium SC450) provides the high-bandwidth, short coherence length light necessary for high axial resolution ([…]). A typical OCT system includes an interferometer with the reference and sample arms intersecting at a beamsplitter. The beamsplitter is replaced in μOCT with a 45 degree rod mirror, which apodizes the sample beam by introducing a circular obscuration in the center to achieve a balance of good lateral resolution (2 μm) and long depth of focus (0.2 mm). Custom software is employed to control the galvanometer scanning motors while acquiring spectral data from the line camera. […]

[2] = tested on: porcine trachea CFTR+/+; assay: μOCT imaging of airway epithelial function in porcine trachea, CFTR+/+ animals; conditions: ivacaftor 10 μM in bath, 37° C. (FIG. 7H)
Text: as §1, §2, §3
Normal piglet tracheas were obtained from Exemplar Genetics (Sioux Center, Iowa). Tissue were dissected from one-day-old piglets and shipped on wet ice in DMEM. A modified protocol based on airway tissue handling and preparation methods developed by Ballard et al. (Am J Physiol Lung Cell Mol Physiol 298: L270-276, 2010) was employed. […]

[3] = target: G551D-CFTR (Homo sapiens, UniProt P13569, G551D); conditions: in vitro and in CF subjects harboring the G551D-CFTR defect; reported; cited from earlier work
G551D-CFTR, sequence (P13569 whole entry G551D): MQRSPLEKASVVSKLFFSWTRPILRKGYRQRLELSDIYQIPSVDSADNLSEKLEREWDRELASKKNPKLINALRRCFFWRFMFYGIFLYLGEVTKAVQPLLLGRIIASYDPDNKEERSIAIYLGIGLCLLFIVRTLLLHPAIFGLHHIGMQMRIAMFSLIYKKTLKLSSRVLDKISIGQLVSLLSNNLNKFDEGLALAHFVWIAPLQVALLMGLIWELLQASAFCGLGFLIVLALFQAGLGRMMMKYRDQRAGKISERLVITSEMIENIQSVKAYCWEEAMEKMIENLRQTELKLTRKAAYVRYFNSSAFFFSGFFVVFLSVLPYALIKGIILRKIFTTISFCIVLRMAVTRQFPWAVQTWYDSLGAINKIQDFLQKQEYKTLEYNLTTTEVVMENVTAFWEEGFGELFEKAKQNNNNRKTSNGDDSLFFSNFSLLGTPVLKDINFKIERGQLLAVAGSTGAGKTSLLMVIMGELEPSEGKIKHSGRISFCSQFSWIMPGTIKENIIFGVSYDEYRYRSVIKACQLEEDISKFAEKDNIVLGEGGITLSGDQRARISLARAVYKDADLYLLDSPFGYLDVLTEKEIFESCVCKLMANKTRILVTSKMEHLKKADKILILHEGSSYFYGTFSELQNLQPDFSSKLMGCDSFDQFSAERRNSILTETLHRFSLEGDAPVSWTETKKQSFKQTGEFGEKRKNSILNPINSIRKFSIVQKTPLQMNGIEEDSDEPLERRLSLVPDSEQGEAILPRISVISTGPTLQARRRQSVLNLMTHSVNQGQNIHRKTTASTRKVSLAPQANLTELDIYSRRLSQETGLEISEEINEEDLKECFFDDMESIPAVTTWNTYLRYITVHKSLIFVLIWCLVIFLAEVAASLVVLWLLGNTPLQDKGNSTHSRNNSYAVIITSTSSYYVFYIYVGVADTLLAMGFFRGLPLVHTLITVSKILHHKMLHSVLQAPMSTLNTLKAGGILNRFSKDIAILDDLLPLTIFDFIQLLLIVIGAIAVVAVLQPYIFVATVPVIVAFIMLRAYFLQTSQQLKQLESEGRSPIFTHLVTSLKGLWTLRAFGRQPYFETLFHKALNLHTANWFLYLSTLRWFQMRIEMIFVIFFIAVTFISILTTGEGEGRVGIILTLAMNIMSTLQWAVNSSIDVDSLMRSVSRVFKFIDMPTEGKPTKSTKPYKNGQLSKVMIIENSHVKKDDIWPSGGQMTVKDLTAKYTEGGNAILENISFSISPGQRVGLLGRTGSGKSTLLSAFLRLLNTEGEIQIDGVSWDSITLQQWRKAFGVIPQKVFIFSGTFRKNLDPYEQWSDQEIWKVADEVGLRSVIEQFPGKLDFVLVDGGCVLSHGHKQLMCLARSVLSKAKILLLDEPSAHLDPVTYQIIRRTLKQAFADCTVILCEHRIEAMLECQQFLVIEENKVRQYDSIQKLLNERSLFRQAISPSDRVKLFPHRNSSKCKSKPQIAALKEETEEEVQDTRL

## CC(C)(C)c1cc(C(C)(C)C)c(NC(=O)c2c[nH]c3ccccc3c2=O)cc1O [ivacaftor]
[1]
  ASL depth response: no response
  CBF response: no response
  MCT response: no response
[2]
  ASL depth response: increased
  CBF response: increased
  MCT response: increased
[3]
  cAMP mediated ion transport activity of CFTR encoding the gating mutation G551D-CFTR: significantly augment
